Laboratory results reported in patent US6303619A, “Meta-substituted acidic 8-phenylxanthine antagonists of A3 human adenosine receptors” (priority 1998, dated 2001).

What was measured:
[1] = system: sheep A3 adenosine receptor; conditions: cited from earlier work
[2] = system: non-transfected CHO cells; test: 125I-ABA binding to membranes from non-transfected CHO cells
Protocol: Membranes were prepared from stable CHO cell lines in 10 mM Hepes, pH 7.4 containing 0.1 mM benzamidine and 0.1 mM PMSF as described (Mahan, L. C. et al., (1991) Mol. Pharinacol. 40, 1-7). Pellets were resuspended in 5 mM Hepes, pH 7.4/5 mM MgCl2 /0.1 mM benzarnidine/0.1 mM PMSF at a protein concentration of 1-2 mg/mL and were incubated with adenosine deaminase (Boehringer Mannheim), 2 U/mL at 37° C. for 20 minutes. Saturation binding of ^125 I-ABA was carried out on 50 μg of membranes for 120 minutes at 25° C. in a total volume of 100 μl. […] Nonspecific binding was measured in the presence of 1 uM I-ABA. The KD and Bmax values were calculated by the EBDA program (McPherson, G. A. (1983) Computer Programs for Biomedicine 17, 107-114). Competition binding of agonists and antagonists was determined with ^125 I-ABA (0.17-2.0 nM, 2000 Ci/mmol). […] Binding data were analyzed and competition curves were constructed by use of the nonlinear regression curve fitting program Graph PAD InPlot, Version 3.0 (Graph Pad Software, San Diego). Ki values were calculated using the Cheng-Prusoff derivation (Cheng, Y. C. and Prusoff, H. R. (1973) Biochem. Pharmacol. 22, 3099-3108.).
The binding properties of the receptor encoded b HS-21a were evaluated on membranes prepared from CHO cells stably expressing the HS-21a cDNA. […]

[3] = target: T1, human A3 adenosine receptor (Homo sapiens, UniProt P0DMS8); test: 125I-ABA binding to membranes of stably transfected CHO cells expressing the human A3 adenosine receptor (HS-21a)
T1 construct: clone HS-21a contained the complete open reading frame corresponding to the human homolog of the rat A3 adenosine receptor; expressed in transfected cells; host or cells: CHO cells stably transfected with HS-21a cDNA
T1 sequence (P0DMS8 1-318): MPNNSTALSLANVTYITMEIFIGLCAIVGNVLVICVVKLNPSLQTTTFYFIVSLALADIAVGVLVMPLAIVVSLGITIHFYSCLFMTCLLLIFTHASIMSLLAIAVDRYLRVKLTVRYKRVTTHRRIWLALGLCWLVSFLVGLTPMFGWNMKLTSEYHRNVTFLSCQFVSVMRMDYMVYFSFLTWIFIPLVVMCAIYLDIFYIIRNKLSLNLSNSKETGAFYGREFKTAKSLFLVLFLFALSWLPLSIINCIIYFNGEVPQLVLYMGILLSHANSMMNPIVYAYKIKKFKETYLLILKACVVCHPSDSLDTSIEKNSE
Protocol: Membranes were prepared from transiently transfected COS7 cells […] after transfection or from G418-selected stably transfected CHO or HEK 293 cells. Cells were harvested in 1 mM EDTA in phosphate buffered saline and centrifuged at 2000×g for 10 minutes. The cell pellet was washed once with phosphate buffered saline. The cell pellet was resuspended in 2 mL of 5 mM Tris, pH 7.6/5mM MgCl2. Membranes were prepared from the cells by freeze-thaw lysis in which the suspension was frozen in a dry ice/ethanol bath and thawed at 25° C. twice. The suspension was homogenized after adding an additional 2 mL of 5 mM Tris, pH 7.6/5 mM MgCl2, in a glass dounce homogenizer with 20 strokes. The membranes were pelleted at 40,000×g at 4° C. for 20 minutes. The membrane pellet was resuspended at a protein concentration of 1-2 mg/mL in binding assay buffer, 50 mM Tris, pH 7.6/10 mM MgCl2. Protein concentration was determined by the method of Bradford ((1976) Anal. Biochem. 72: 248-250). […] Saturation binding of [^125 I]-N^6 -aminiobenizyladenosine (125I-ABA) or [^125 I]-N^6 -2-(4-amino-3-iodophenyl)ethyladenosine (APNEA) was performed on membranes prepared from pSVLA3 transfected COS7 cells. Membranes (100 μg) were incubated in the presence of 0.2 U/mL adenosine deaminase with increasing concentrations of ^125 I-ABA in the range of 0.1-30 nM for 120 minutes at 25° C. in a total volume of 500 μl. The binding assay was terminated by rapid filtration and three washes with ice-cold 50 mM Tris, pH 7.6/10 mM MgCl2 on a Skatron cell harvester equipped with a receptor binding flitermat (SKATRON INSTRUMENTS, INC). Non-specific binding was determined on non-transfected cells. Bound radioactivity was measured by scintillation counting in Ready Safe Scintillation Cocktail (BECKMAN).
The 1.7 kb HS-21a cDNA (A3) was subcloned as a SalI-BamHl fragment into the expression vector pCMV5 (Mumby, S. M., Heukeroth, R. O., Gordon, J. I. and Gilman, A. G. (1990) Proc. Natl. Acad. Sci. USA 87, 728-732.) creating the vector pCMV5-A3. CHO or HEK 293 cells stably expressing the human HS-21 a cDNA were prepared by co-transfection of 15 μg pCMV5-A3 and 1 μg pWLneo (Stratagene) using the calcium phosphate method. Stable cell lines were also generated using EBV based mammalian expression vectors, pREP (INVITROGEN). Neomycin resistant colonies were selected in 1 mg/mL G418 (GIBCO). Stable colonies were screened for expression of HS-21a by ^125 I-ABA binding.
Membranes were prepared from stable CHO cell lines in 10 mM Hepes, pH 7.4 containing 0.1 mM benzamidine and 0.1 mM PMSF as described (Mahan, L. C. et al., (1991) Mol. Pharinacol. 40, 1-7). Pellets were resuspended in 5 mM Hepes, pH 7.4/5 mM MgCl2 /0.1 mM benzarnidine/0.1 mM PMSF at a protein concentration of 1-2 mg/mL and were incubated with adenosine deaminase (Boehringer Mannheim), 2 U/mL at 37° C. for 20 minutes. Saturation binding of ^125 I-ABA was carried out on 50 μg of membranes for 120 minutes at 25° C. in a total volume of 100 μl. The assay was terminated by rapid filtration and three washes with ice-cold binding buffer on a Skatron harvester equipped with a receptor binding filtermat (Skatron Instruments, Inc.). The specific activity of ^125 I-ABA, initially 2,200 Ci/mmol, was reduced to 100 Ci/mmol with nonradioactive I-ABA for saturation analysis. Nonspecific binding was measured in the presence of 1 uM I-ABA. The KD and Bmax values were calculated by the EBDA program (McPherson, G. A. (1983) Computer Programs for Biomedicine 17, 107-114). Competition binding of agonists and antagonists was determined with ^125 I-ABA (0.17-2.0 nM, 2000 Ci/mmol). […] Binding data were analyzed and competition curves were constructed by use of the nonlinear regression curve fitting program Graph PAD InPlot, Version 3.0 (Graph Pad Software, San Diego).

A3 adenosine receptor = test: mast cell degranulation in an animal model; assay type: in vivo
Source text: (§1) The release of enzymes, bioactive amines and arachidonic acid metabolites following mast cell activation causes vasoconstriction, edema, leukocyte accumulation, and ultimately, tissue damage. Mast cell degranulation is a component of myocardian reperfusion injury, hypersensitivity reactions (asthma, allergic rhinitis, and urticaria), ischemic bowel disease, autoimmune inflammation, and atopic dermatitis. Selective A3 adenosine receptor antagonists can be used to treat or prevent these diseases and pathologic effects that result from mast cell degranulation.
as §1, with “of: myocardial” for “of myocardian”, “inflammations, 20” for “inflammation,”, “The present invention relates to the use of highly specific meta-substituted 8-phenylxanthine” for “Selective”, “antagonists” for “antagonists can be used”

asthmatics = conditions: not nonasthmatics; cited from earlier work
[4] = system: mast cells isolated from rat peritoneum; conditions: cited from earlier work
[5] = system: hamster cheek pouch anerioles; test: vasoconstriction of hamster cheek pouch arterioles
Source text: The constrictor response has classically been attributed to A1 adenosine receptor stimulation or interactions with the renin-angiotensin system. […] In the present invention, specific blockade of the A3 subtype of the adenosine receptor by a meta-substitutedphenylxanthine is effective to block the vasoconstrictive response induced through adenosine activation of this receptor subtype. The use of a meta-substituted phenylxanthine specific inhibitor of the A3 adenosine receptor subtype is effective to inhibit effects induced by adenosine mediated mast cell degranulation, and that disease states including but not limited to myocardial ischemia (Ito et al., Am. J. Physiol. 264 (Heart Circ. Physiol. 33):H I 346-H 1354, 1993), mastcell-dependent inflammation (Raud, J., Acta. Physiol. Scand. 135 (Suppl '578):I-58, 1989), brain arteriole diameter constriction (Rosenblum, W. I., Brain Res. 49:75-82, 1973), and the release of allergic mediators (Ramkumar et al., J. Biol. Chem. 268:16887-16890, 1993), are all amenable to prevention and treatment by contacting A3 receptor bearing mast cells with an amount of a meta-substituted phenylxanthine selective A3 inhibitor effective to prevent mast cell degranulation.

[6] = target: T1, human A3 adenosine receptor; test: inhibition of forskolin-stimulated cAMP accumulation in stably transfected CHO cells expressing the human A3 receptor; assay type: cell-based
Protocol: The human A3 adenosine receptor from a striatal cDNA library can be cloned using a probe derived from the homologous rat sequence.
cAMP Accumulation in Stable CHO Cell Lines
The changes in cAMP accumulation can alternatively be measured in stably transfected CHO cells expressing the human adenosine receptor subtypes. CHO cells are washed twice in phosphate buffered saline (PBS) and detached in 0.2% EDTA in PBS. The cells are pelleted at 800 rpm for 10 min and resuspended in KRH buffer (140 mM NaCl/5 mM KCl/2 mM CaCl2 /1.2 mM MgSO4 /1.2 mM KH2 PO4 /6 mM glucose/25 mM Hepes buffer, pH 7.4). The cells are washed once in KRH buffer and resuspended at 10^7 cells/mL. The cell suspension (100 μl) is mixed with 100 μl of KRH buffer containing 200 uM Ro 20-1724 and incubated at 37° C. for 10 minutes. Adenosine (10 uM) was added in 200 μl KRH buffer containing 200 uM Ro 20-1724 and incubated at 37° C. for 20 minutes. After the incubation, 400 μl of 0.5 mM NaOAc (pH 6.2) was added and the sample was boiled for 20 minutes. The supernatant was recovered by centrifugation for 15 minutes and stored at -70° C. cAMP levels were determined by radiommunoassay (RIANEN kit, DuPont/NEN) using the to acetylation protocol. The effect of antagonists on cAMP accumulation are measured by preincubation for 20 minutes before adding adenosine.

[7] = target: T1, human A3 adenosine receptor; test: 125I-ABA binding to membranes of stably transfected CHO cells expressing the human A3 adenosine receptor (HS-21a); conditions: 1 mM nonradioactive I-ABA
[8] = 125I-ABA saturation binding, HS-21a stable CHO cell membranes

Nc1ccc(CNc2ncnc3c2ncn3[C@@H]2O[C@H](CO)[C@@H](O)[C@H]2O)cc1[125I] [^125 I-ABA, N^6-(4-amino-3^125 iodobenzyl)adenosine]
binding / affinity of ligands in words [1]: binds | specific binding to non-transfected cells [2]: No specific binding | Bmax [3, 8]: 258 fmol/mg protein | Hill coefficient [3, 8]: 0.99 | agonist activity inferred from effect of uncoupling reagents on binding ([3]; HS-21a in stable CHO cell line): exhibits some agonist activity

Nc1ncnc2c1ncn2[C@@H]1O[C@H](CO)[C@@H](O)[C@H]1O [Adenosine, adenosine]
induction of mast cell degranulation (A3 adenosine receptor): induce mast cell degranulation | bronchoconstriction (asthmatics): produces bronchoconstriction in asthmatics but not in nonasthmatics | release of granule contents [4]: potentiates the release of granule contents | vasoconstrictor action [5]: vasoconstrictor action | inhibition of forskolin-stimulated cAMP accumulation ([6]; stably transfected CHO cells, human A3): 30-40%

Nc1ccc(CNc2ncnc3c2ncn3[C@@H]2O[C@H](CO)[C@@H](O)[C@H]2O)cc1I [I-ABA]
agonist affinity order [1]: I-ABA>APNEA>NECA≥R-PIA>>CPA | agonist character (partial agonist) ([6]; human A3, stably transfected CHO cells): partial agonist | prevention of specific binding of 125I-ABA [7]: prevented
